Measured values reported in the Kinase Knowledgebase extract (Sharma et al. 2016).

Biological target: PIK3CG (human) (UniProt P48736)
Assay: Inhibition of PIK3CG Kinase Activity

PIK3CG (human), sequence (P48736 whole entry, looked up): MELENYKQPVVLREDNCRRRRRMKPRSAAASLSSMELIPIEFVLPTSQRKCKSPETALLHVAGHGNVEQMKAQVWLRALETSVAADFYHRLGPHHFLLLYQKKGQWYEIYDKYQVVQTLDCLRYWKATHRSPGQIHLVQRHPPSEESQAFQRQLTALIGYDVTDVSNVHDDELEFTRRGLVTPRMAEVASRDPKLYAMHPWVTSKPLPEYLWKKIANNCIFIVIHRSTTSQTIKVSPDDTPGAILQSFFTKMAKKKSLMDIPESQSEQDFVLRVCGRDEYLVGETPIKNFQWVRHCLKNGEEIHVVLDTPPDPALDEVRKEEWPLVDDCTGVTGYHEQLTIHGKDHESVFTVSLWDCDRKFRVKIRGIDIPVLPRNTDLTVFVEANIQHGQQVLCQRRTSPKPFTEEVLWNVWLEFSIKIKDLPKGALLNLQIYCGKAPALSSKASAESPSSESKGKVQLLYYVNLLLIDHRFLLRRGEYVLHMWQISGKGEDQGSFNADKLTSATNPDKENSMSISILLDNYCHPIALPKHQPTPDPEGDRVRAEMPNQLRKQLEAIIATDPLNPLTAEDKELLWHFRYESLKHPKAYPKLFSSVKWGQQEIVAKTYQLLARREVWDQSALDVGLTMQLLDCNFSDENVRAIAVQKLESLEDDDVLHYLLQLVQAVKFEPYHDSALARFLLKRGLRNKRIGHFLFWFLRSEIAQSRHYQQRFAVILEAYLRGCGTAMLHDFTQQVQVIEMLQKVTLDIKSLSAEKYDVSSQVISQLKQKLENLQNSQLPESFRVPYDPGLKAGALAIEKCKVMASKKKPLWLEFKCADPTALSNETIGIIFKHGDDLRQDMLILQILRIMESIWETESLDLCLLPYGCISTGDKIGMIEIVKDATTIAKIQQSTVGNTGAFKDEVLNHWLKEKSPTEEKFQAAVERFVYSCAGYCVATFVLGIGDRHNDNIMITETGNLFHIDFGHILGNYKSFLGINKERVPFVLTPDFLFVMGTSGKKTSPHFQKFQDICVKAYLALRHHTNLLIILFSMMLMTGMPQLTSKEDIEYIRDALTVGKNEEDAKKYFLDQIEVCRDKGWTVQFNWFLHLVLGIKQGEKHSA

| Ki [nM] | Structure (SMILES) |
| --- | --- |
| < 100 | COc1cc(-c2ccc3c(n2)CN(c2cncc(CC#N)c2)C3=O)cnc1OC |
| < 100 | COc1cc(-c2ccc3c(n2)C(C)N(c2ccn(C[C@@H](C)O)n2)C3=O)cnc1OC (some centres undefined) |
| < 100 | Cc1cc(-c2cncc(OCC(F)(F)F)c2)nc2c1C(=O)N(c1cn(CC(F)(F)F)cn1)C2 |
| < 100 | COc1cc(-c2ccc3c(n2)CN(c2cnn([C@H](CO)C(F)(F)F)c2)C3=O)cnc1OC |
| < 100 | CCOc1cc(-c2cc(C)c3c(n2)C(OCCOC)N(c2cnn(CC(F)(F)F)c2)C3=O)cnc1OC (centres undefined) |
| < 100 | Cc1cc(-c2cncc(OC(F)F)c2)nc2c1C(=O)N(c1cnn(CC(F)(F)F)c1)[C@H]2C |
| < 100 | COCCOCCOc1ncc(-c2cc(C)c3c(n2)C(C)N(c2cnn(CC(F)(F)F)c2)C3=O)cc1OC (centres undefined) |
| < 100 | CCOc1cncc(-c2cc(C)c3c(n2)[C@H](C)N(c2cnn(CC(F)(F)F)c2)C3=O)c1 |
| < 100 | COc1cc(-c2ccc3c(n2)CN(c2ccc(N4CCC(CCO)CC4)nc2)C3=O)cnc1OC |
| 100 to 490 | COCCO[C@H]1c2nc(-c3cnc(OC)c(OC)c3)ccc2C(=O)N1c1cnn(CC(F)(F)F)c1 |
| < 100 | COc1cc(OC)cc(-c2cc(C)c3c(n2)[C@H](C)N(c2cnn(CC(F)(F)F)c2)C3=O)c1 |
| < 100 | COCCOCCOc1ncc(-c2cc(C)c3c(n2)CN(c2cnn(CC#N)c2)C3=O)cc1OC |
| 100 to 490 | COc1cc(-c2ccc3c(n2)CN(c2cnn(CCn4nccc4C)c2)C3=O)cnc1OC |
| < 100 | CCOc1ncc(-c2cc(C)c3c(n2)C(O)N(c2cnn(CC(F)(F)F)c2)C3=O)cc1OC (centres undefined) |
| < 100 | COc1ncc(-c2cc(C)c3c(n2)C(C)(C)N(c2cnn(CC(F)(F)F)c2)C3=O)cc1C(=O)NCC(C)O (centres undefined) |
| < 100 | COc1cc(-c2ccc3c(n2)[C@@H](OC)N(c2cnn(CC(F)(F)F)c2)C3=O)cnc1OC |
| < 100 | COc1ncc(-c2cc(C)c3c(n2)CN(c2cnn(C(C)(C)C#N)c2)C3=O)cc1OCC(F)(F)F |
| 100 to 490 | Cc1cc(-c2cc(OC(F)(F)F)ccc2Cl)nc2c1C(=O)N(c1cnn(CC(F)(F)F)c1)C2 |
| < 100 | COc1cc(-c2ccc3c(n2)CN(c2cnn(C(C)C#N)c2)C3=O)cnc1OC (centres undefined) |
| 100 to 490 | COc1cc(-c2ccc3c(c2)CN(c2cscn2)C3=O)cnc1OC |
| < 100 | COc1cc(-c2ccc3c(n2)[C@H](C)N(c2ccn(C[C@@H](C)O)n2)C3=O)cnc1OC |
| < 100 | COc1cncc(-c2cc(C)c3c(n2)C(C)(C)N(c2cnn([C@@H]4CCOC4)c2)C3=O)c1 |
| < 100 | COc1cc(-c2cc(C)c3c(n2)C(C(C)C)N(c2cnn(CC(F)(F)F)c2)C3=O)cnc1OC (centres undefined) |
| 100 to 490 | C=CC1(O)c2nc(-c3cncc(OC)c3)cc(C)c2C(=O)N1c1cnn(CC(F)(F)F)c1 (centres undefined) |

| Ki [nM] | Structure (SMILES) |
| --- | --- |
| < 100 | COc1cc(-c2ccc3c(n2)CN(c2cccc(C(C)(C)C#N)n2)C3=O)cnc1OC |
| < 100 | COc1cc(-c2ccc3c(n2)CN(c2cnn(C)n2)C3=O)cnc1OC |
| < 100 | COc1cc(-c2ccc3c(n2)CN(c2ccn[nH]2)C3=O)cnc1OC |
| < 100 | COc1cncc(-c2cc(C)c3c(n2)C2(CC(O)C2)N(c2cnn(CC(F)(F)F)c2)C3=O)c1 (centres undefined) |
| < 100 | CCOc1ncc(-c2cc(C)c3c(n2)CN(c2cnn(C(C)(C)C#N)c2)C3=O)cc1OC |
| < 100 | COCc1cc(N2Cc3nc(-c4cnc(OC)c(OC)c4)ccc3C2=O)nn1C[C@H](C)O |
| < 100 | COc1cc(-c2cc(C)c3c(n2)CN(c2ccn(C(C)(C)C#N)n2)C3=O)cnc1OC |
| < 100 | Cc1cc(-c2cncc(OCC(F)F)c2)nc2c1C(=O)N(c1cnn(CC(F)F)c1)C2 |
| < 100 | COc1cncc(-c2cc(C)c3c(n2)[C@H](C)N(c2cn[nH]c2)C3=O)c1 |
| 100 to 490 | COc1cc(-c2ccc3c(n2)CN(c2ccnc(OCC(F)F)c2)C3=O)cnc1OC |
| < 100 | COc1cc(OC)cc(-c2cc(C)c3c(n2)[C@@H](C)N(c2cnn(CC(F)(F)F)c2)C3=O)c1 |
| < 100 | COc1cncc(-c2cc(C)c3c(n2)C2(CCC2)N(c2cnn(CC(F)(F)F)c2)C3=O)c1 |
| < 100 | CCNC(=O)c1cc(-c2cc(C)c3c(n2)C(C)N(c2cnn(CC(F)F)c2)C3=O)cnc1OC (centres undefined) |
| 100 to 490 | COc1cc(-c2ccc3c(n2)CN(c2ccc(N4CCOC(CO)C4)nc2)C3=O)cnc1OC (centres undefined) |
| < 100 | COc1cc(-c2ccc3c(n2)CN(c2cncc(C(C)(C)O)c2)C3=O)cnc1OC |
| < 100 | COc1cc(-c2cc(C)c3c(n2)C(C)N(c2cnn(CC(F)(F)F)c2)C3=O)cnc1C (centres undefined) |
| < 100 | Cc1cc(-c2cncc(OCC(F)F)c2)nc2c1C(=O)N(c1cnn(CC(F)(F)F)c1)C2C (centres undefined) |
| < 100 | COc1cncc(-c2cc(C)c3c(n2)C(C)(C)N(c2ccn(C[C@H](C)O)n2)C3=O)c1 |
| < 100 | Cc1cc(-c2cncc(C(=O)NC3CC3)c2)nc2c1C(=O)N(c1cnn(CC(F)(F)F)c1)C2 |
| < 100 | COc1cc(-c2ccc3c(n2)C(C)N(c2cnn(CC#N)c2)C3=O)cnc1OC (centres undefined) |
| < 100 | Cc1cc(-c2cncc(OCC(F)(F)F)c2)nc2c1C(=O)N(c1cnn(CC(F)F)c1)C2 |
| < 100 | COc1cncc(-c2cc(C)c3c(n2)C(C)(C)N(c2cnn(CC(F)(F)F)c2)C3=O)c1 |
| < 100 | COc1ncc(-c2cc(C)c3c(n2)CN(c2cnn(CC(F)(F)F)c2)C3=O)cc1OCC(F)F |
| < 100 | Cc1cc(-c2cncc(OCC(F)F)c2)nc2c1C(=O)N(c1cnn(CC(F)(F)F)c1)C2 |

| Ki [nM] | Structure (SMILES) |
| --- | --- |
| < 100 | COc1cc(-c2cc(C)c3c(c2)CN(c2cnn([C@@H](CO)C(F)(F)F)c2)C3=O)cnc1OC |
| < 100 | C#CCNC(=O)c1cncc(-c2cc(C)c3c(n2)C(C)N(c2cnn(CC(F)(F)F)c2)C3=O)c1 (centres undefined) |
| 100 to 490 | CCn1ccc(N2C(=O)c3c(C)cc(-c4cncc(OC)c4)nc3C2(C)C)n1 |
| < 100 | CCOc1cc(-c2cc(C)c3c(n2)CN(c2cnn(CC#N)c2)C3=O)cnc1OCC |
| < 100 | CCOc1cncc(-c2cc(C)c3c(n2)[C@H](OC)N(c2cnn(CC(F)(F)F)c2)C3=O)c1 |
| < 100 | CCn1cc(N2Cc3nc(-c4cnc(OC)c(OC(F)F)c4)cc(C)c3C2=O)cn1 |
| < 100 | COc1cc(-c2ccc3c(n2)C(C)N(c2cn[nH]c2)C3=O)cnc1OC (centres undefined) |
| < 100 | COc1cc(-c2ccc3c(n2)C(C)(C)N(c2cn[nH]c2)C3=O)cnc1OC |
| < 100 | CCOCCOc1cc(-c2cc(C)c3c(n2)CN(c2cnn(CC(F)(F)F)c2)C3=O)cnc1OC |
| < 100 | COc1cncc(-c2cc(C)c3c(n2)[C@@H](C)N(c2ccn(C)n2)C3=O)c1 |
| < 100 | COc1cncc(-c2cc(C)c3c(n2)C2(CC=CC2)N(c2cnn(CC(F)(F)F)c2)C3=O)c1 |
| < 100 | COc1cc(-c2cc(C)c3c(n2)CN(c2ccc(CO)nc2)C3=O)cnc1OC |
| < 100 | COc1cc(-c2ccc3c(n2)CN(c2ccnc(C(C)(C)C#N)c2)C3=O)cnc1OC |
| < 100 | CCn1cc(N2C(=O)c3ccc(-c4cnc(OC)c(OC(F)F)c4)nc3[C@H]2C)cn1 |
| < 100 | CCOc1ncc(-c2cc(C)c3c(n2)CN(c2ccon2)C3=O)cc1OC |
| < 100 | CCOc1ncc(-c2ccc3c(n2)CN(c2cnn(CC#N)c2)C3=O)cc1OC |
| < 100 | COc1cc(-c2cc(C)c3c(n2)CN(c2ccnc(C4(C#N)CC4)c2)C3=O)cnc1OC |
| < 100 | CCO[C@]1(C)c2nc(-c3cnc(OC)c(OC)c3)cc(C)c2C(=O)N1c1cnn(CC(F)(F)F)c1 |
| < 100 | COc1cc(-c2ccc3c(n2)CN(c2cnn(CC4CC4)c2)C3=O)cnc1OC |
| < 100 | COc1cc(-c2ccc3c(c2)CN(c2cnn([C@H](C)C#N)c2)C3=O)cnc1OC |
| < 100 | COc1ncc(-c2cc(C)c3c(n2)CN(c2cn[nH]c2)C3=O)cc1OCC(F)(F)F |
| 100 to 490 | CCOc1cncc(-c2cc(C)c3c(n2)C(C)(C)N(c2cnn(COCCOC)c2)C3=O)c1 |
| < 100 | COc1cc(-c2cc(C)c3c(n2)[C@H](C)N(c2cnn(C[C@@H](C)O)c2)C3=O)cnc1OC |
| 100 to 490 | COc1cc(-c2ccc3c(c2)CN(c2cccc(C(C)C#N)c2)C3=O)cnc1OC (centres undefined) |

| Ki [nM] | Structure (SMILES) |
| --- | --- |
| < 100 | Cc1cc(-c2cncc(OC(F)F)c2)nc2c1C(=O)N(c1cnn(CC(F)(F)F)c1)C2(C)C |
| < 100 | CO[C@@H]1c2nc(-c3cncc(OCC(F)F)c3)cc(C)c2C(=O)N1c1cnn(CC(F)(F)F)c1 |
| < 100 | CCOc1ncc(-c2ccc3c(c2)CN(c2cnn(CC#N)c2)C3=O)cc1OC |
| < 100 | Cc1cc(-c2cncc(C(=O)NC(C)C)c2)nc2c1C(=O)N(c1cnn(CC(F)(F)F)c1)C2(C)C |
| 100 to 490 | COCCn1ccc(N2Cc3nc(-c4cnc(OC)c(OC)c4)ccc3C2=O)n1 |
| 100 to 490 | COc1cc(-c2ccc3c(n2)CN(c2cncc(CN4CCOCC4)c2)C3=O)cnc1OC |
| < 100 | COc1ncc(-c2cc(C)c3c(n2)CN(c2cnn(CC(F)(F)F)c2)C3=O)cc1CO |
| < 100 | Cc1cc(-c2cncc(OCC(F)F)c2)nc2c1C(=O)N(c1cnn(CC(F)F)c1)C2C (centres undefined) |
| < 100 | CCOc1cc(-c2cc(C)c3c(n2)CN(c2cnn(CC)c2)C3=O)cnc1OC |
| < 100 | CNC(=O)c1cncc(-c2cc(C)c3c(n2)CN(c2cnn(CC(F)(F)F)c2)C3=O)c1 |
| < 100 | Cc1cc(-c2cncc(OC(F)F)c2)nc2c1C(=O)N(c1ccnc(OCC(F)F)c1)C2 |
| < 100 | Cc1cc(-c2cncc(S(C)(=O)=O)c2)nc2c1C(=O)N(c1cnn(CC(F)(F)F)c1)[C@@H]2C |
| 100 to 490 | COc1cc(-c2ccc3c(n2)CN(c2ccc(=O)n(C)c2)C3=O)cnc1OC |
| < 100 | COc1ncc(-c2cc(C)c3c(n2)C(C)N(c2cnn(CC(F)(F)F)c2)C3=O)cc1C(=O)NC(C)C (centres undefined) |
| 100 to 490 | CCOc1ccc(N2Cc3nc(-c4cnc(OC)c(OC)c4)ccc3C2=O)cn1 |
| < 100 | Cc1cc(-c2cncc(OCCF)c2)nc2c1C(=O)N(c1cnn(CC(F)(F)F)c1)C2 |
| 100 to 490 | COc1cc(-c2ccc3c(n2)CN(c2ccc(OCC(F)(F)F)nc2)C3=O)cnc1OC |
| < 100 | CCOc1cncc(-c2cc(C)c3c(n2)CN(c2cnn(CC(F)F)c2)C3=O)c1 |
| < 100 | COc1cncc(-c2cc(C)c3c(n2)[C@H](C)N(c2ccn(C)n2)C3=O)c1 |
| < 100 | COc1ncc(-c2cc(C)c3c(n2)C(C)(C)N(c2cnn(CC(F)(F)F)c2)C3=O)cc1C(=O)NC1COC1 |
| < 100 | Cc1cc(-c2cncc(OC(F)F)c2)nc2c1C(=O)N(c1cncc(CC#N)c1)C2 |
| < 100 | CCNC(=O)c1cc(-c2cc(C)c3c(n2)C(C)(C)N(c2cnn(CC(F)(F)F)c2)C3=O)cnc1OC |
